Values quoted from earlier work as cited in patent US8785725B2, “Method for generating resistance against citrus diseases caused by insects, fungi, oomycetes, bacteria or nematodes” (Institute Valenciano de Investigaciones Agrarias, priority 2009, dated 2014).

SMILES: C=C(C)C1CC=C(C)CC1 (stereo not drawn) [d-limonene, 1-methyl-4-(1-methylethenyl)cyclohexene]
- miscibility with alcohol (alcohol): miscible with alcohol
- solubility in water (water): insoluble in water
